Experimental data as given in PubChem BioAssay (NCI).
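Cultured in 96-well plates, cells were exposed to test compound for 48 hours across five concentrations. The concentration for 50% growth inhibition is given as GI50. At the TGI there is no net growth.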

Experiments:
Assay in all cases: growth of human tumour cells (NCI), 48 h
786-0 renal = tested on: 786-0 renal
A498 renal = tested on: A498 renal
A549 NSCLC = tested on: A549 NSCLC
ACHN renal = tested on: ACHN renal
CAKI-1 renal = tested on: CAKI-1 renal
CCRF-CEM leukemia = tested on: CCRF-CEM leukemia
DLD-1 colon = tested on: DLD-1 colon
EKVX NSCLC = tested on: EKVX NSCLC
HCC-2998 colon = tested on: HCC-2998 colon
HCT-116 colon = tested on: HCT-116 colon
HCT-15 colon = tested on: HCT-15 colon
HOP-18 NSCLC = tested on: HOP-18 NSCLC
HOP-62 NSCLC = tested on: HOP-62 NSCLC
HT29 colon = tested on: HT29 colon
K-562 leukemia = tested on: K-562 leukemia
KM12 colon = tested on: KM12 colon
KM20L2 colon = tested on: KM20L2 colon
LXFL 529 NSCLC = tested on: LXFL 529 NSCLC
M14 melanoma = tested on: M14 melanoma
MALME-3M melanoma = tested on: MALME-3M melanoma
MOLT-4 leukemia = tested on: MOLT-4 leukemia
NCI-H23 lung = tested on: NCI-H23 lung
NCI-H460 lung = tested on: NCI-H460 lung
NCI-H522 lung = tested on: NCI-H522 lung
OVCAR-3 ovarian = tested on: OVCAR-3 ovarian
OVCAR-4 ovarian = tested on: OVCAR-4 ovarian
OVCAR-5 ovarian = tested on: OVCAR-5 ovarian
OVCAR-8 ovarian = tested on: OVCAR-8 ovarian
RPMI-8226 leukemia = tested on: RPMI-8226 leukemia
SF-268 CNS = tested on: SF-268 CNS
SF-295 CNS = tested on: SF-295 CNS
SF-539 CNS = tested on: SF-539 CNS
SK-MEL-2 melanoma = tested on: SK-MEL-2 melanoma
SK-MEL-28 melanoma = tested on: SK-MEL-28 melanoma
SK-MEL-5 melanoma = tested on: SK-MEL-5 melanoma
SN12C renal = tested on: SN12C renal
SNB-19 CNS = tested on: SNB-19 CNS
SNB-75 CNS = tested on: SNB-75 CNS
SNB-78 CNS = tested on: SNB-78 CNS
SW-620 colon = tested on: SW-620 colon
TK-10 renal = tested on: TK-10 renal
U251 CNS = tested on: U251 CNS
UACC-257 melanoma = tested on: UACC-257 melanoma
UO-31 renal = tested on: UO-31 renal
XF 498 CNS = tested on: XF 498 CNS
HOP-92 NSCLC = tested on: HOP-92 NSCLC
IGROV1 ovarian = tested on: IGROV1 ovarian
LOX IMVI melanoma = tested on: LOX IMVI melanoma
M19-MEL melanoma = tested on: M19-MEL melanoma
NCI-H226 lung = tested on: NCI-H226 lung
RXF 393 renal = tested on: RXF 393 renal
SK-OV-3 ovarian = tested on: SK-OV-3 ovarian
SR leukemia = tested on: SR leukemia
UACC-62 melanoma = tested on: UACC-62 melanoma
COLO 205 colon = tested on: COLO 205 colon
DMS 114 small cell lung = tested on: DMS 114 small cell lung
DMS 273 small cell lung = tested on: DMS 273 small cell lung
HL-60(TB) leukemia = tested on: HL-60(TB) leukemia

COc1ccc2ccnc(Cc3ccc(OCc4ccccc4)c(OC)c3)c2c1
TGI (786-0 renal): 44.5 µM
TGI (A498 renal): 54.5 µM
TGI (A549 NSCLC): 79.5 µM
TGI (ACHN renal): 76.3 µM
TGI (CAKI-1 renal): > 100 µM
TGI (CCRF-CEM leukemia): 83.6 µM
TGI (DLD-1 colon): > 100 µM
TGI (EKVX NSCLC): 42.7 µM
TGI (HCC-2998 colon): 38.4 µM
TGI (HCT-116 colon): 29.7 µM
TGI (HCT-15 colon): 44.9 µM
TGI (HOP-18 NSCLC): 62.5 µM
TGI (HOP-62 NSCLC): 35.3 µM
TGI (HT29 colon): > 100 µM
TGI (K-562 leukemia): > 100 µM
TGI (KM12 colon): 37.1 µM
TGI (KM20L2 colon): > 100 µM
TGI (LXFL 529 NSCLC): 80.6 µM
TGI (M14 melanoma): 33.2 µM
TGI (MALME-3M melanoma): 33.9 µM
TGI (MOLT-4 leukemia): 46.6 µM
TGI (NCI-H23 lung): 53 µM
TGI (NCI-H460 lung): 37.8 µM
TGI (NCI-H522 lung): 72.7 µM
TGI (OVCAR-3 ovarian): 34.2 µM
TGI (OVCAR-4 ovarian): 34 µM
TGI (OVCAR-5 ovarian): > 100 µM
TGI (OVCAR-8 ovarian): 43.5 µM
TGI (RPMI-8226 leukemia): 65.3 µM
TGI (SF-268 CNS): 70.3 µM
TGI (SF-295 CNS): 68.1 µM
TGI (SF-539 CNS): 32.3 µM
TGI (SK-MEL-2 melanoma): 39.7 µM
TGI (SK-MEL-28 melanoma): 33.4 µM
TGI (SK-MEL-5 melanoma): 29.9 µM
TGI (SN12C renal): 29.8 µM
TGI (SNB-19 CNS): > 100 µM
TGI (SNB-75 CNS): 76.7 µM
TGI (SNB-78 CNS): 67.6 µM
TGI (SW-620 colon): > 100 µM
TGI (TK-10 renal): 93.2 µM
TGI (U251 CNS): 44.6 µM
TGI (UACC-257 melanoma): 44.7 µM
TGI (UO-31 renal): 19.8 µM
TGI (XF 498 CNS): 31.2 µM

O=C1C(C(Nc2ccccc2)c2ccccc2)=C([O-])c2ccccc21.O=C1C(C(Nc2ccccc2)c2ccccc2)=C([O-])c2ccccc21.[Ni+2] (centres undefined)
GI50 (A498 renal): 7.57 µM
TGI (A498 renal): > 100 µM
GI50 (A549 NSCLC): 4.17 µM
TGI (A549 NSCLC): > 100 µM
GI50 (ACHN renal): 7.81 µM
TGI (ACHN renal): > 100 µM
GI50 (CAKI-1 renal): 28.8 µM
TGI (CAKI-1 renal): > 100 µM
GI50 (CCRF-CEM leukemia): 3.96 µM
TGI (CCRF-CEM leukemia): > 100 µM
GI50 (DLD-1 colon): 4.2 µM
TGI (DLD-1 colon): > 100 µM
GI50 (EKVX NSCLC): 3.33 µM
TGI (EKVX NSCLC): 9.82 µM
GI50 (HCC-2998 colon): 4.41 µM
TGI (HCC-2998 colon): > 100 µM
GI50 (HCT-116 colon): 3.05 µM
TGI (HCT-116 colon): > 100 µM
GI50 (HCT-15 colon): 4.09 µM
TGI (HCT-15 colon): > 100 µM
GI50 (HOP-18 NSCLC): 31.1 µM
TGI (HOP-18 NSCLC): > 100 µM
GI50 (HOP-62 NSCLC): 14.2 µM
TGI (HOP-62 NSCLC): > 100 µM
GI50 (HOP-92 NSCLC): 6.14 µM
TGI (HOP-92 NSCLC): 55.6 µM
GI50 (HT29 colon): 4 µM
TGI (HT29 colon): > 100 µM
GI50 (IGROV1 ovarian): 4.9 µM
TGI (IGROV1 ovarian): > 100 µM
GI50 (K-562 leukemia): 3.59 µM
TGI (K-562 leukemia): > 100 µM
GI50 (KM12 colon): 4.01 µM
TGI (KM12 colon): > 100 µM
GI50 (KM20L2 colon): 24.4 µM
TGI (KM20L2 colon): 77.7 µM
GI50 (LOX IMVI melanoma): 5.81 µM
TGI (LOX IMVI melanoma): > 100 µM
GI50 (M14 melanoma): 7.99 µM
TGI (M14 melanoma): > 100 µM
GI50 (M19-MEL melanoma): 11 µM
TGI (M19-MEL melanoma): > 100 µM
GI50 (MALME-3M melanoma): 7.91 µM
TGI (MALME-3M melanoma): > 100 µM
GI50 (MOLT-4 leukemia): 3.71 µM
TGI (MOLT-4 leukemia): > 100 µM
GI50 (NCI-H226 lung): 17.9 µM
TGI (NCI-H226 lung): > 100 µM
GI50 (NCI-H23 lung): 5.23 µM
TGI (NCI-H23 lung): > 100 µM
GI50 (NCI-H460 lung): 4.46 µM
TGI (NCI-H460 lung): > 100 µM
GI50 (OVCAR-3 ovarian): 22.2 µM
TGI (OVCAR-3 ovarian): 66.4 µM
GI50 (OVCAR-4 ovarian): 16.5 µM
TGI (OVCAR-4 ovarian): > 100 µM
GI50 (OVCAR-5 ovarian): 3.55 µM
TGI (OVCAR-5 ovarian): 49.5 µM
GI50 (OVCAR-8 ovarian): 4.43 µM
TGI (OVCAR-8 ovarian): > 100 µM
GI50 (RXF 393 renal): 4.9 µM
TGI (RXF 393 renal): 85 µM
GI50 (SF-268 CNS): 3.35 µM
TGI (SF-268 CNS): > 100 µM
GI50 (SF-295 CNS): 3.69 µM
TGI (SF-295 CNS): > 100 µM
GI50 (SF-539 CNS): 3.66 µM
TGI (SF-539 CNS): > 100 µM
GI50 (SK-MEL-2 melanoma): 3.32 µM
TGI (SK-MEL-2 melanoma): 15.2 µM
GI50 (SK-MEL-28 melanoma): 9.95 µM
TGI (SK-MEL-28 melanoma): > 100 µM
GI50 (SK-MEL-5 melanoma): 1.34 µM
TGI (SK-MEL-5 melanoma): 7.45 µM
GI50 (SK-OV-3 ovarian): 2.66 µM
TGI (SK-OV-3 ovarian): 6.78 µM
GI50 (SN12C renal): 4.56 µM
TGI (SN12C renal): > 100 µM
GI50 (SNB-19 CNS): 25.6 µM
TGI (SNB-19 CNS): 56.7 µM
GI50 (SNB-75 CNS): 6.34 µM
TGI (SNB-75 CNS): 94.7 µM
GI50 (SNB-78 CNS): 7.6 µM
TGI (SNB-78 CNS): > 100 µM
GI50 (SR leukemia): 3.72 µM
TGI (SR leukemia): > 100 µM
GI50 (SW-620 colon): 5.3 µM
TGI (SW-620 colon): > 100 µM
GI50 (TK-10 renal): 12.8 µM
TGI (TK-10 renal): > 100 µM
GI50 (UACC-257 melanoma): 42.3 µM
TGI (UACC-257 melanoma): > 100 µM
GI50 (UACC-62 melanoma): 6.59 µM
TGI (UACC-62 melanoma): 51 µM
GI50 (UO-31 renal): 11.5 µM
TGI (UO-31 renal): > 100 µM
GI50 (XF 498 CNS): 4.9 µM
TGI (XF 498 CNS): 54.8 µM

C/C=C/C1(C)/C(=N\O)C(C)(CCC)C(=O)N1O (centres undefined)
TGI (786-0 renal): > 100 µM
TGI (A498 renal): > 100 µM
TGI (A549 NSCLC): > 100 µM
TGI (ACHN renal): > 100 µM
TGI (CAKI-1 renal): > 100 µM
TGI (CCRF-CEM leukemia): > 100 µM
TGI (COLO 205 colon): > 100 µM
TGI (DLD-1 colon): > 100 µM
TGI (DMS 114 small cell lung): > 100 µM
TGI (DMS 273 small cell lung): > 100 µM
TGI (EKVX NSCLC): > 100 µM
TGI (HCC-2998 colon): > 100 µM
TGI (HCT-116 colon): > 100 µM
TGI (HCT-15 colon): > 100 µM
TGI (HL-60(TB) leukemia): > 100 µM
TGI (HOP-62 NSCLC): > 100 µM
TGI (HOP-92 NSCLC): > 100 µM
TGI (HT29 colon): > 100 µM
TGI (IGROV1 ovarian): > 100 µM
TGI (K-562 leukemia): > 100 µM
TGI (KM12 colon): > 100 µM
TGI (KM20L2 colon): > 100 µM
TGI (LOX IMVI melanoma): > 100 µM
TGI (LXFL 529 NSCLC): > 100 µM
TGI (M14 melanoma): > 100 µM
TGI (M19-MEL melanoma): > 100 µM
TGI (MALME-3M melanoma): > 100 µM
TGI (MOLT-4 leukemia): > 100 µM
TGI (NCI-H226 lung): > 100 µM
TGI (NCI-H23 lung): > 100 µM
TGI (NCI-H460 lung): > 100 µM
TGI (NCI-H522 lung): > 100 µM
TGI (OVCAR-3 ovarian): > 100 µM
TGI (OVCAR-4 ovarian): > 100 µM
TGI (OVCAR-5 ovarian): > 100 µM
TGI (OVCAR-8 ovarian): > 100 µM
TGI (RPMI-8226 leukemia): > 100 µM
TGI (RXF 393 renal): > 100 µM
TGI (SF-295 CNS): > 100 µM
TGI (SF-539 CNS): > 100 µM
TGI (SK-MEL-2 melanoma): > 100 µM
TGI (SK-MEL-28 melanoma): > 100 µM
TGI (SK-MEL-5 melanoma): > 100 µM
TGI (SK-OV-3 ovarian): > 100 µM
TGI (SN12C renal): > 100 µM
TGI (SNB-19 CNS): > 100 µM
TGI (SNB-75 CNS): > 100 µM
TGI (SNB-78 CNS): > 100 µM
TGI (SR leukemia): > 100 µM
TGI (SW-620 colon): > 100 µM
TGI (TK-10 renal): > 100 µM
TGI (U251 CNS): > 100 µM
TGI (UACC-257 melanoma): > 100 µM
TGI (UACC-62 melanoma): > 100 µM
TGI (UO-31 renal): > 100 µM
TGI (XF 498 CNS): > 100 µM
